According to paper PMC7187199, “Investigation of a New Type I Baeyer–Villiger Monooxygenase from Amycolatopsis thermoflava Revealed High Thermodynamic but Limited Kinetic Stability” (Chembiochem, 2020):

Legend:
[1] = molecular target: T1, TmCHMO (Thermocrispum municipale, UniProt A0A1L1QK39); assay: NADPH oxidation at […] nm; type: biochemical; conditions: 0.5 mM cyclohexanone, 100 μM NADPH, 10 μM FAD, 50 mM Tris-HCl, 30 °C
T1 sequence (A0A1L1QK39 1-541): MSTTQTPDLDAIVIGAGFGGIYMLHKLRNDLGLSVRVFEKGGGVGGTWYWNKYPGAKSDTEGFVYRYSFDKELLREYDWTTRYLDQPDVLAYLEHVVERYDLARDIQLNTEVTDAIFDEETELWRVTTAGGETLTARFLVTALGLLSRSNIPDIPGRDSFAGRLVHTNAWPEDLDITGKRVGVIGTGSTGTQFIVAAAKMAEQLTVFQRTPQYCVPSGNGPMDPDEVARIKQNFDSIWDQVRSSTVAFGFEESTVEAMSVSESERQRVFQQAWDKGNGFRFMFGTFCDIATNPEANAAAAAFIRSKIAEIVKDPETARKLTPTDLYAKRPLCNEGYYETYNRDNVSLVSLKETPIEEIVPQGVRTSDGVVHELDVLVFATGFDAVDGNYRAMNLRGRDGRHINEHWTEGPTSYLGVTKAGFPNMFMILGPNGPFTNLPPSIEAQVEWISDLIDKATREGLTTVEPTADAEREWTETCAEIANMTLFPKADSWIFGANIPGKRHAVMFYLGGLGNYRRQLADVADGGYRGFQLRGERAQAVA

[2] = molecular target: T2, CHMOAcineto (Acinetobacter johnsonii, UniProt P12015); assay: NADPH oxidation at […] nm; type: biochemical; conditions: 100 μM NADPH, 50 mM Tris-HCl, 30 °C
T2 construct: gene chnB
T2 sequence (P12015 2-543): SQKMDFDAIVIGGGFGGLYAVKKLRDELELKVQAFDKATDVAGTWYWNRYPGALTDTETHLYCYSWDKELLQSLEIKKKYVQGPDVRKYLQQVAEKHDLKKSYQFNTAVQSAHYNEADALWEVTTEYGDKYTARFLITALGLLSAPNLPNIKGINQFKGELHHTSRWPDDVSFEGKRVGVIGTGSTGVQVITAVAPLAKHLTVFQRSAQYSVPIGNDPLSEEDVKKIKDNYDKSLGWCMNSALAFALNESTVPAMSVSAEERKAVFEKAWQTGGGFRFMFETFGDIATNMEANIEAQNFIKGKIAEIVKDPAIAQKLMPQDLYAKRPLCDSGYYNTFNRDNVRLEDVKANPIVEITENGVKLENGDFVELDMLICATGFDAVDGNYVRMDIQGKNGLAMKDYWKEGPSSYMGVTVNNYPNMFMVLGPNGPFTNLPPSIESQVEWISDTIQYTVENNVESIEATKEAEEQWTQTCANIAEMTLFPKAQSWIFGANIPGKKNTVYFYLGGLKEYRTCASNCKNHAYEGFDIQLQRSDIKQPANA

[3] = system: O=C1CCCCC1; assay: purified protein; conditions: 100 μM NADPH, 50 mM Tris-HCl, 30 °C

Molecule	NADPH oxidation at 340 nm [1]	Km [2]	Km [3]	kcat [3]
O=C1CCCCC1 [cyclohexanone]	The activity was comparable to that of TmCHMO	6.74 ± 2 µM	–	–
BVMOFlava (Amycolatopsis thermoflava)	–	–	0.53 ± 0.1 µM	1.5 ± 0.1 s⁻¹
